System: MV-4-11 cells
Assay: Gene expression microarray analysis (Affymetrix PrimeView) and GSEA
Format: cell-based, human
Set-up: RFU PODN (11730768_x_at) / Fold change /veh PODN (11730768_x_at) / RFU LINC00158 (11744669_a_at) / Fold change /veh LINC00158 (11744669_a_at) / RFU DUSP10 (11751237_a_at) / Fold change /veh DUSP10 (11751237_a_at) / RFU ID3 (11757404_x_at) / Fold change /veh ID3 (11757404_x_at) / RFU PLEKHG5 (11737974_s_at) / Fold change /veh PLEKHG5 (11737974_s_at) / RFU LRRC4B (11730491_at) / Fold change /veh LRRC4B (11730491_at) / RFU GIMAP4 (11747438_a_at) / Fold change /veh GIMAP4 (11747438_a_at) / RFU KRT8 (11758183_x_at) / Fold change /veh KRT8 (11758183_x_at) / RFU CNN1 (11734310_a_at) / Fold change /veh CNN1 (11734310_a_at) / RFU VPS37D (11726825_at) / Fold change /veh VPS37D (11726825_at) / RFU C10orf10 (11716522_x_at) / Fold change /veh C10orf10 (11716522_x_at) / RFU KIR2DL2 /// KIR2DL4 /// KIR2DL5A /// KIR2DL5B /// KIR2DS1 /// KIR2DS2 /// KIR2DS3 /// KIR2DS4 /// KIR3DL3 /// KIR3DL3 /// KIR3DS1 (11738374_at) / Fold change /veh KIR2DL2 /// KIR2DL4 /// KIR2DL5A /// KIR2DL5B /// KIR2DS1 /// KIR2DS2 /// KIR2DS3 /// KIR2DS4 /// KIR3DL3 /// KIR3DL3 /// KIR3DS1 (11738374_at) / RFU C1QL1 (11718748_at) / Fold change /veh C1QL1 (11718748_at) / RFU TMPRSS4 (11747572_a_at) / Fold change /veh TMPRSS4 (11747572_a_at) / RFU HAMP (11756126_x_at) / Fold change /veh HAMP (11756126_x_at) / RFU RNFT2 (11725882_a_at) / Fold change /veh RNFT2 (11725882_a_at) / RFU NR4A2 (11747474_a_at) / Fold change /veh NR4A2 (11747474_a_at) / RFU ABCC12 (11746883_a_at) / Fold change /veh ABCC12 (11746883_a_at) / RFU TMEM136 (11760407_x_at) / Fold change /veh TMEM136 (11760407_x_at) / RFU CLDN22 /// WWC2 (11732394_at) / Fold change /veh CLDN22 /// WWC2 (11732394_at) / RFU HLA-DPB1 (11760878_x_at) / Fold change /veh HLA-DPB1 (11760878_x_at) / RFU SPINT1 (11716480_a_at) / Fold change /veh SPINT1 (11716480_a_at) / RFU GAP43 (11754022_s_at) / Fold change /veh GAP43 (11754022_s_at) / RFU A4GNT (11735810_at) / Fold change /veh A4GNT (11735810_at) / RFU PRB3 (11715151_x_at) / Fold change /veh PRB3 (11715151_x_at) / RFU TUBB4B (11761932_at) / Fold change /veh TUBB4B (11761932_at) / RFU CAPN14 (11732068_a_at) / Fold change /veh CAPN14 (11732068_a_at) / RFU TMCC2 (11721928_a_at) / Fold change /veh TMCC2 (11721928_a_at) / RFU IRGQ (11745062_a_at) / Fold change /veh IRGQ (11745062_a_at) / RFU FAM174B (11720279_a_at) / Fold change /veh FAM174B (11720279_a_at) / RFU TMPRSS4 (11748680_a_at) / Fold change /veh TMPRSS4 (11748680_a_at) / RFU FAM212B (11763350_a_at) / Fold change /veh FAM212B (11763350_a_at) / RFU PLEKHG5 (11743358_a_at) / Fold change /veh PLEKHG5 (11743358_a_at) / RFU ZSCAN30 (11745921_a_at) / Fold change /veh ZSCAN30 (11745921_a_at) / RFU CMKLR1 (11741424_a_at) / Fold change /veh CMKLR1 (11741424_a_at) / RFU LOC101060620 /// MAPK8IP1 (11723275_at) / Fold change /veh LOC101060620 /// MAPK8IP1 (11723275_at) / RFU SPTSSB (11747773_x_at) / Fold change /veh SPTSSB (11747773_x_at) / RFU PRSS12 (11739890_at) / Fold change /veh PRSS12 (11739890_at) / RFU BIN1 (11741810_x_at) / Fold change /veh BIN1 (11741810_x_at) / RFU WNT11 (11732464_a_at) / Fold change /veh WNT11 (11732464_a_at) / RFU C10orf10 (11716521_a_at) / Fold change /veh C10orf10 (11716521_a_at) / RFU C5orf56 (11738089_at) / Fold change /veh C5orf56 (11738089_at) / RFU CYB561 (11721691_x_at) / Fold change /veh CYB561 (11721691_x_at) / RFU ANKRD19P (11752326_a_at) / Fold change /veh ANKRD19P (11752326_a_at) / RFU OR2T12 /// OR2T33 /// OR2T8 (11738714_s_at) / Fold change /veh OR2T12 /// OR2T33 /// OR2T8 (11738714_s_at) / RFU VCAN (11748164_a_at) / Fold change /veh VCAN (11748164_a_at) / RFU JSRP1 (11732532_at) / Fold change /veh JSRP1 (11732532_at) / RFU KRTAP10-11 (11738290_x_at) / Fold change /veh KRTAP10-11 (11738290_x_at) / RFU MYO3A (11730013_a_at) / Fold change /veh MYO3A (11730013_a_at) / RFU EBF3 (11725865_a_at) / Fold change /veh EBF3 (11725865_a_at) / RFU CAMK2N1 (11719241_x_at) / Fold change /veh CAMK2N1 (11719241_x_at) / RFU C5orf56 (11738088_a_at) / Fold change /veh C5orf56 (11738088_a_at) / RFU OLFML3 (11715873_a_at) / Fold change /veh OLFML3 (11715873_a_at) / RFU LOC100653217 /// NTM (11731650_a_at) / Fold change /veh LOC100653217 /// NTM (11731650_a_at) / RFU MAPK11 (11762145_a_at) / Fold change /veh MAPK11 (11762145_a_at) / RFU FIZ1 (11724087_x_at) / Fold change /veh FIZ1 (11724087_x_at) / RFU OASL (11726364_x_at) / Fold change /veh OASL (11726364_x_at) / RFU SOX15 (11748057_x_at) / Fold change /veh SOX15 (11748057_x_at) / RFU CD79A (11719716_a_at) / Fold change /veh CD79A (11719716_a_at) / RFU HIST1H1D (11736915_at) / Fold change /veh HIST1H1D (11736915_at) / RFU CASKIN2 (11723855_a_at) / Fold change /veh CASKIN2 (11723855_a_at) / RFU LOC730098 (11760151_x_at) / Fold change /veh LOC730098 (11760151_x_at) / RFU OR4N2 (11742367_at) / Fold change /veh OR4N2 (11742367_at) / RFU PRRT2 (11749266_a_at) / Fold change /veh PRRT2 (11749266_a_at) / RFU SNX32 (11753110_a_at) / Fold change /veh SNX32 (11753110_a_at) / RFU CDHR5 (11726645_a_at) / Fold change /veh CDHR5 (11726645_a_at) / RFU RCAN1 (11760418_a_at) / Fold change /veh RCAN1 (11760418_a_at) / RFU FAM167A (11723789_a_at) / Fold change /veh FAM167A (11723789_a_at) / RFU FAM26E (11764081_at) / Fold change /veh FAM26E (11764081_at) / RFU ISYNA1 (11749810_s_at) / Fold change /veh ISYNA1 (11749810_s_at) / RFU ACY1 (11761880_at) / Fold change /veh ACY1 (11761880_at) / RFU 11764098_at / Fold change /veh 11764098_at / RFU SAMD14 (11745864_x_at) / Fold change /veh SAMD14 (11745864_x_at) / RFU NPB (11741838_a_at) / Fold change /veh NPB (11741838_a_at) / RFU TMPRSS6 (11731388_a_at) / Fold change /veh TMPRSS6 (11731388_a_at) / RFU KRTAP10-2 (11738614_at) / Fold change /veh KRTAP10-2 (11738614_at) / RFU ARHGAP8 /// PRR5-ARHGAP8 (11727945_x_at) / Fold change /veh ARHGAP8 /// PRR5-ARHGAP8 (11727945_x_at) / RFU KRTAP5-7 /// NADSYN1 (11734609_at) / Fold change /veh KRTAP5-7 /// NADSYN1 (11734609_at) / RFU RASL12 (11751679_a_at) / Fold change /veh RASL12 (11751679_a_at) / RFU CDKN2B (11736163_a_at) / Fold change /veh CDKN2B (11736163_a_at) / RFU PRF1 (11729649_at) / Fold change /veh PRF1 (11729649_at) / RFU, ZNF638 /// ZNF638-IT1 / Fold change vs veh, ZNF638 /// ZNF638-IT1 / RFU, PANK3 / Fold change vs veh, PANK3 / RFU, SH3YL1 / Fold change vs veh, SH3YL1 / RFU, ZEB2 / Fold change vs veh, ZEB2 / RFU, NRIP1 / Fold change vs veh, NRIP1 / RFU, PTTG1IP / Fold change vs veh, PTTG1IP / RFU, CAPN2 / Fold change vs veh, CAPN2 / RFU, MED14 / Fold change vs veh, MED14 / RFU, SNORA58 / Fold change vs veh, SNORA58 / RFU, C1orf63 / Fold change vs veh, C1orf63 / RFU, LRRFIP1 / Fold change vs veh, LRRFIP1 / RFU, NDUFAF7 / Fold change vs veh, NDUFAF7 / RFU, SLC12A2 / Fold change vs veh, SLC12A2 / RFU, IBTK / Fold change vs veh, IBTK / RFU, ESF1 / Fold change vs veh, ESF1 / Fold change vs veh, TMEM50B / RFU, TAOK1 / Fold change vs veh, TAOK1 / RFU, ACBD3 / Fold change vs veh, ACBD3 / RFU, TMA16 / Fold change vs veh, TMA16 / RFU, RWDD3 / Fold change vs veh, RWDD3 / RFU, BCAT1 / Fold change vs veh, BCAT1 / RFU, EDEM3 / Fold change vs veh, EDEM3 / RFU, TMEM33 / Fold change vs veh, TMEM33 / RFU, WDR75 / Fold change vs veh, WDR75 / RFU, AHCTF1 / Fold change vs veh, AHCTF1 / RFU, TFRC / Fold change vs veh, TFRC / RFU, ZDHHC17 / Fold change vs veh, ZDHHC17 / RFU, NOM1 / Fold change vs veh, NOM1 / RFU, ARL8B / Fold change vs veh, ARL8B / RFU, ZBTB11 / Fold change vs veh, ZBTB11 / RFU, TAMM41 / Fold change vs veh, TAMM41 / RFU, KIAA1704 /// LOC100996395 / Fold change vs veh, KIAA1704 /// LOC100996395 / RFU, ING1 / Fold change vs veh, ING1 / RFU, TRMT61B / Fold change vs veh, TRMT61B / RFU, FUBP3 / Fold change vs veh, FUBP3 / RFU, TP53 / Fold change vs veh, TP53 / RFU, TNKS2 / Fold change vs veh, TNKS2 / RFU, ZFP14 / Fold change vs veh, ZFP14 / RFU, ACTR2 / Fold change vs veh, ACTR2 / RFU, PPP3R1 / Fold change vs veh, PPP3R1 / RFU, PIK3R1 / Fold change vs veh, PIK3R1 / RFU, HNRNPA1 / Fold change vs veh, HNRNPA1 / RFU, RNF170 / Fold change vs veh, RNF170 / RFU, ZNF28 / Fold change vs veh, ZNF28 / RFU, RNGTT / Fold change vs veh, RNGTT / RFU, OGT / Fold change vs veh, OGT / RFU, BRD1 / Fold change vs veh, BRD1 / RFU, MARS / Fold change vs veh, MARS / RFU, ZNF655 / Fold change vs veh, ZNF655 / RFU, FAHD1 / Fold change vs veh, FAHD1 / RFU, BDP1 / Fold change vs veh, BDP1 / RFU, LRRCC1 / Fold change vs veh, LRRCC1 / RFU, ARID1A / Fold change vs veh, ARID1A / RFU, ZNF146 / Fold change vs veh, ZNF146 / RFU, ZNF330 / Fold change vs veh, ZNF330 / RFU, GPN3 / Fold change vs veh, GPN3 / RFU, C9orf123 / Fold change vs veh, C9orf123 / RFU, N4BP2L2 / Fold change vs veh, N4BP2L2 / RFU, ARFIP1 / Fold change vs veh, ARFIP1 / RFU, FAM179B / Fold change vs veh, FAM179B / RFU, BCL10 / Fold change vs veh, BCL10 / RFU, UHRF1BP1L / Fold change vs veh, UHRF1BP1L / RFU, BET1 / Fold change vs veh, BET1 / RFU, CNOT2 / Fold change vs veh, CNOT2 / RFU, ZNF268 / Fold change vs veh, ZNF268 / Fold change vs veh, ZNF507 / RFU, DGCR2 / Fold change vs veh, DGCR2 / RFU, WDSUB1 / Fold change vs veh, WDSUB1 / Fold change vs veh, HSP90B1 /// MIR3652 / RFU, ADSS / Fold change vs veh, ADSS / RFU, GK / Fold change vs veh, GK / RFU, ZNF148 / Fold change vs veh, ZNF148 / RFU, TAF9 / Fold change vs veh, TAF9 / RFU, SLC1A5 / Fold change vs veh, SLC1A5 / RFU, SLMO2 / Fold change vs veh, SLMO2 / RFU, ABCC4 / Fold change vs veh, ABCC4 / RFU, LOC101060439 /// RAP1B / Fold change vs veh, LOC101060439 /// RAP1B / RFU, RFX7 / Fold change vs veh, RFX7 / RFU, GTPBP10 / Fold change vs veh, GTPBP10 / RFU, CNEP1R1 / Fold change vs veh, CNEP1R1 / RFU, BIVM-ERCC5 /// ERCC5 / Fold change vs veh, BIVM-ERCC5 /// ERCC5 / RFU, ILF3 / Fold change vs veh, ILF3 / RFU 11762660_at / Fold change /veh 11762660_at / RFU VCAN (11757783_s_at) / Fold change /veh VCAN (11757783_s_at) / RFU DDX43 (11728927_at) / Fold change /veh DDX43 (11728927_at) / RFU KRT8 (11758188_x_at) / Fold change /veh KRT8 (11758188_x_at) / RFU NKD1 (11759106_at) / Fold change /veh NKD1 (11759106_at) / RFU SRD5A1 (11742802_a_at) / Fold change /veh SRD5A1 (11742802_a_at) / RFU TPSAB1 /// TPSB2 (11721975_s_at) / Fold change /veh TPSAB1 /// TPSB2 (11721975_s_at) / RFU GSTM3 (11746129_a_at) / Fold change /veh GSTM3 (11746129_a_at) / RFU IL23R (11737362_x_at) / Fold change /veh IL23R (11737362_x_at) / RFU TMEM51 (11727254_a_at) / Fold change /veh TMEM51 (11727254_a_at) / RFU PIWIL2 (11732686_x_at) / Fold change /veh PIWIL2 (11732686_x_at) / RFU ORM1 (11744905_x_at) / Fold change /veh ORM1 (11744905_x_at) / RFU CCDC152 (11743942_at) / Fold change /veh CCDC152 (11743942_at) / RFU ECM1 (11717891_a_at) / Fold change /veh ECM1 (11717891_a_at) / RFU IL23R (11748794_a_at) / Fold change /veh IL23R (11748794_a_at) / RFU TNFAIP8L3 (11732012_x_at) / Fold change /veh TNFAIP8L3 (11732012_x_at) / RFU MBOAT4 (11741988_at) / Fold change /veh MBOAT4 (11741988_at) / RFU 11764193_at / Fold change /veh 11764193_at / RFU TMEM53 (11763286_at) / Fold change /veh TMEM53 (11763286_at) / RFU MAGEB2 (11727129_at) / Fold change /veh MAGEB2 (11727129_at) / RFU TMEM200A (11744735_a_at) / Fold change /veh TMEM200A (11744735_a_at) / RFU CCDC152 (11751479_a_at) / Fold change /veh CCDC152 (11751479_a_at) / RFU FAM211A (11726209_a_at) / Fold change /veh FAM211A (11726209_a_at) / RFU RGS16 (11746705_a_at) / Fold change /veh RGS16 (11746705_a_at) / RFU VCAN (11755009_s_at) / Fold change /veh VCAN (11755009_s_at) / RFU RHOB (11743442_s_at) / Fold change /veh RHOB (11743442_s_at) / RFU RGS16 (11720943_a_at) / Fold change /veh RGS16 (11720943_a_at) / RFU RGS16 (11720944_at) / Fold change /veh RGS16 (11720944_at) / RFU, VPS4B / Fold change vs veh, VPS4B / RFU, CREB1 / Fold change vs veh, CREB1 / RFU, DNAJC13 / Fold change vs veh, DNAJC13 / RFU, GNAQ / Fold change vs veh, GNAQ / RFU, CDK5R1 / Fold change vs veh, CDK5R1 / RFU, ZRANB3 / Fold change vs veh, ZRANB3 / RFU, CUL4A / Fold change vs veh, CUL4A / RFU, CCNY / Fold change vs veh, CCNY / RFU, UFL1 / Fold change vs veh, UFL1 / RFU, COG3 / Fold change vs veh, COG3 / RFU, DIAPH2 / Fold change vs veh, DIAPH2 / RFU, SKA2 / Fold change vs veh, SKA2 / RFU, AFF3 / Fold change vs veh, AFF3 / RFU, LMF1 / Fold change vs veh, LMF1 / RFU, IPO11 / Fold change vs veh, IPO11 / RFU, DFFB / Fold change vs veh, DFFB / RFU, FOXP1 / Fold change vs veh, FOXP1 / RFU, CARD8 / Fold change vs veh, CARD8 / RFU, STRN3 / Fold change vs veh, STRN3 / RFU, ADK / Fold change vs veh, ADK / RFU, RASSF2 / Fold change vs veh, RASSF2 / RFU, WIPF1 / Fold change vs veh, WIPF1 / RFU, LARP1B / Fold change vs veh, LARP1B / RFU, RASA1 / Fold change vs veh, RASA1 / RFU, RB1 / Fold change vs veh, RB1 / RFU, PPFIA1 / Fold change vs veh, PPFIA1 / RFU, MAT2A / Fold change vs veh, MAT2A / RFU, CCT5 / Fold change vs veh, CCT5 / RFU, WDR92 / Fold change vs veh, WDR92 / RFU, CUX1 / Fold change vs veh, CUX1 / RFU, TTC7A / Fold change vs veh, TTC7A / RFU, TMEM135 / Fold change vs veh, TMEM135 / RFU, DEPTOR / Fold change vs veh, DEPTOR / RFU, CPM / Fold change vs veh, CPM / RFU, DNAJB6 / Fold change vs veh, DNAJB6 / RFU, CACNA2D3 / Fold change vs veh, CACNA2D3 / RFU, DTX4 / Fold change vs veh, DTX4 / RFU, TFCP2 / Fold change vs veh, TFCP2 / RFU, GMCL1 /// GMCL1P1 / Fold change vs veh, GMCL1 /// GMCL1P1 / RFU, AEBP2 / Fold change vs veh, AEBP2 / RFU, SNHG1 /// SNORD22 /// SNORD25 /// SNORD26 /// SNORD27 /// SNORD28 /// SNORD29 /// SNORD31 / Fold change vs veh, SNHG1 /// SNORD22 /// SNORD25 /// SNORD26 /// SNORD27 /// SNORD28 /// SNORD29 /// SNORD31 / Fold change (Aza/veh), C12orf56 (ProbeSet 11735607_a_at) / Fold change (ACY-1035/veh), C12orf56 (ProbeSet 11735607_a_at) / Fold change (Aza/veh), FGFR1OP (ProbeSet 11751329_s_at) / Fold change (ACY-1035/veh), FGFR1OP (ProbeSet 11751329_s_at) / Fold change (Aza/veh), VPS36 (ProbeSet 11739960_a_at) / Fold change (ACY-1035/veh), VPS36 (ProbeSet 11739960_a_at) / RFU SYPL1 (11715823_x_at) / Fold change /veh SYPL1 (11715823_x_at) / RFU IGFBP7 (11715501_s_at) / Fold change /veh IGFBP7 (11715501_s_at) / RFU REEP3 (11722064_at) / Fold change /veh REEP3 (11722064_at) / RFU IGLL1 (11728026_x_at) / Fold change /veh IGLL1 (11728026_x_at): dose or concentration left out as unconfirmed
Details: ProbeSet 11725902_s_at; LIST D

Nc1ncn([C@@H]2O[C@H](CO)[C@@H](O)[C@H]2O)c(=O)n1 [azacitidine] was tested, and the “Fold change vs veh, TMEM135” value was 0.57.

From paper PMC5218480 (PLoS ONE, 2017)
